Starred links: 1 amine or outer side, 2 acyl side, 3 side chain; linkers in the order of their positions; H or OH if unused. Positions of bridges follow the written chain, without caps; N, C: chain ends. Non-standard residues stand in square brackets, D forms with d. Residues, ends and D or L forms follow the SMILES beside them. X1 = O=C(O)CCCCCCCCCCCCCCCCCCC(=O)N[C@@H](CCCCNC(=O)COCCOCCNC(=O)COCCOCCNC(=O)CCC(=O)N(CCNC(=O)C[*:1])CCNC(=O)C[*:2])C(=O)O; Hyp = O=C(O)[C@@H]1C[C@@H](O)CN1; αMeK = C[C@](N)(CCCCN)C(=O)O; Aib = CC(C)(N)C(=O)O
Key:
[1] = Pharmacokinetic evaluation in Cynomolgus macaques; format: in vivo, adult male Cynomolgus macaques; conditions: cynomolgus monkey, plasma, 0.2 mg/kg
Procedure: 2. The pharmacokinetic behaviors of the polypeptide derivatives (i.e., AMY-001 to AMY-041) prepared in Example 1 and Example 2 in Cynomolgus macaques were tested.
Each polypeptide derivatives (i.e., AMY-001 to AMY-041) was respectively administered to adult male Cynomolgus macaques as a single injection via subcutaneous injection (S.C., 0.2 mg/kg, with PBS as a medicament vehicle, a concentration of 0.2 mg/mL, […], with PBS as a medicament vehicle, a concentration of 0.2 mg/mL, and an administration volume of 1 mL), respectively. After administration, whole blood samples were respectively collected from the jugular vein or other appropriate veins at selected time points. 0.2 mL of blood was collected and placed in a labeled EDTA-K2 anticoagulant tube. The tube was gently inverted up and down to ensure thorough mixing of the anticoagulant (EDTA-K2) with the blood, immediately placed on wet ice and centrifuged as soon as possible to separate plasma, and the centrifugation conditions were set to 4° C., 6800 g, and 6 minutes. Plasma samples were stored in a refrigerator at a temperature not exceeding −20° C. for subsequent analysis.
(§1) Under yellow light conditions in an ice water bath, (1) except for the blank sample, 300 μL of precipitant containing internal standard was added to a 96-well plate containing 20 μL of a standard curve sample, a quality control sample or an unknown sample; 300 μL of acetonitrile was added to the blank sample; (2) vortex mixing; (3) centrifugation; (4) 150 μL of supernatant was taken and added into a new 96-well plate, and then mixed well with 150 μL of ultrapure water; and (5) the above samples were quantitatively analyzed by using LC-MS analysis. Gradient elution was performed on a XB—C18 chromatographic column (2.1*100 mm, 3 μm), with the mobile phase as follows: mobile phase A=0.1% formic acid-water; and mobile phase B=acetonitrile. Pharmacokinetic parameters were calculated using Phoenix WinNonlin software.

[2] = Pharmacokinetic evaluation in SD rats; format: in vivo, male SD rat; conditions: plasma, rat
Procedure: 1. The pharmacokinetic behaviors of the polypeptide derivatives (i.e., AMY-001 to AMY-041) prepared in Example 1 and Example 2 in SD rats were tested.
Each polypeptide derivative (i.e., AMY-001 to AMY-041) was administered to male SD rat as a single injection via subcutaneous injection (SC, 3 mg/kg, with PBS as a medicament vehicle, a concentration of 1.5 mg/mL, and an administration volume of 2 mL) and intravenous injection (IV, 1 mg/kg, with PBS as a medicament vehicle, a concentration of 0.5 mg/mL, and an administration volume of 2 mL), respectively. After administration, whole blood samples were respectively collected from the jugular vein or other appropriate veins at selected time points. 0.2 mL of blood was collected and placed in a labeled EDTA-K2 anticoagulant tube. The tube was gently inverted up and down to ensure thorough mixing of the anticoagulant (EDTA-K2) with the blood, immediately placed on wet ice and centrifuged as soon as possible to separate plasma, and the centrifugation conditions were set to 4° C., 6800 g, and 6 minutes. Plasma samples were stored in a refrigerator at a temperature not exceeding −20° C. until subsequent analysis.
as §1, with “(5) The” for “(5) the”, “A=0.1% (volume percentage, v/v)” for “A=0.1%”

[3] = background, in words; cited from earlier work
[4] = background, in words; cited from earlier work; remark: listed apart in the source

| AUC(0-inf) ([1]; IV (0.2 mpk)) [µg·h/mL] | clearance ([1]; IV (0.2 mpk)) [mL/h/kg] | half-life ([1]; IV (0.2 mpk)) [h] | AUC(0-inf) ([1]; SC (0.2 mpk)) [µg·h/mL] | Cmax ([1]; SC (0.2 mpk)) [ng/mL] | Tmax ([1]; SC (0.2 mpk)) [h] | bioavailability ([1]; SC (0.2 mpk)) [%] | half-life ([1]; SC (0.2 mpk)) [h] | AUC(0-inf) ([2]; 1 mg/kg, IV (1 mpk)) [µg·h/mL] | clearance ([2]; 1 mg/kg, IV (1 mpk)) [mL/h/kg] | half-life ([2]; 1 mg/kg, IV (1 mpk)) [h] | AUC(0-inf) ([2]; 3 mg/kg, SC (3 mpk)) [µg·h/mL] | Cmax ([2]; 3 mg/kg, SC (3 mpk)) [ng/mL] | Tmax ([2]; 3 mg/kg, SC (3 mpk)) [h] | bioavailability ([2]; 3 mg/kg, SC (3 mpk)) [%] | half-life ([2]; 3 mg/kg, SC (3 mpk)) [h] | SMILES | in-vivo half-life [3] | stability [4] |
| --- | --- | --- | --- | --- | --- | --- | --- | --- | --- | --- | --- | --- | --- | --- | --- | --- | --- | --- |
| 942 | 0.217 | 146 | 514 | 2260 | 24 | 54.5 | 143 | 286 | 3.52 | 20.5 | 567 | 11100 | 24 | 66.1 | 20.6 | CC(=O)N[C@@H](C)C(=O)N[C@@H](CO)C(=O)N[C@@H](Cc1c[nH]cn1)C(=O)N[C@@H](CC(C)C)C(=O)N[C@@H](CO)C(=O)N[C@H](C(=O)N[C@@H](C)C(=O)N[C@H]1CSCC(=O)NCCN(C(=O)CCC(=O)NCCOCCOCC(=O)NCCOCCOCC(=O)NCCCC[C@H](NC(=O)CCCCCCCCCCCCCCCCCCC(=O)O)C(=O)O)CCNC(=O)CSC[C@@H](C(=O)N[C@@H](CC(C)C)C(=O)N[C@@H](Cc2c[nH]cn2)C(=O)N[C@@](C)(CCCCN)C(=O)N[C@@H](CC(C)C)C(=O)NC(C)(C)C(=O)N[C@@H](CC(=O)O)C(=O)N[C@@H](Cc2ccc(O)cc2)C(=O)N2CCC[C@H]2C(=O)N[C@@H](CCC(N)=O)C(=O)N[C@H](C(=O)N[C@@H](CC(=O)O)C(=O)N[C@H](C(=O)NCC(=O)N[C@@H](C)C(=O)NCC(=O)N[C@@H](CO)C(=O)N2C[C@H](O)C[C@H]2C(N)=O)C(C)C)[C@@H](C)O)NC(=O)[C@H](C)NC(=O)[C@H](CO)NC(=O)[C@H](CC(C)C)NC(=O)[C@H](CCCNC(=N)N)NC(=O)CNC(=O)[C@H](CC(C)C)NC1=O)[C@@H](C)O [AMY-015, Ac-ASHLSTACLGRLSACLH-(αMeK)-L-Aib-DYPQTDVGAGS-Hyp-NH2] (Ac-ASHLSTACLGRLSACLH[αMeK]L[Aib]DYPQTDVGAGS[Hyp]-NH2; linker 8-15 via X1) |  |  |
|  |  |  |  |  |  |  |  |  |  |  |  |  |  |  |  | CC(C)C[C@H](NC(=O)[C@H](CCCCN)NC(=O)CNC(=O)[C@H](CC(C)C)NC(=O)[C@@H](NC(=O)[C@@H]1CSSC[C@H](N)C(=O)N[C@@H](CO)C(=O)N[C@@H](CC(N)=O)C(=O)N[C@@H](CC(C)C)C(=O)N[C@@H](CO)C(=O)N[C@@H]([C@@H](C)O)C(=O)N1)C(C)C)C(=O)N[C@@H](CO)C(=O)N[C@@H](CCC(N)=O)C(=O)N[C@@H](CCC(=O)O)C(=O)N[C@@H](CC(C)C)C(=O)N[C@@H](Cc1c[nH]cn1)C(=O)N[C@@H](CCCCN)C(=O)N[C@@H](CC(C)C)C(=O)N[C@@H](CCC(N)=O)C(=O)N[C@H](C(=O)N[C@@H](Cc1ccc(O)cc1)C(=O)N1CCC[C@H]1C(=O)N[C@@H](CCCNC(=N)N)C(=O)N[C@H](C(=O)N[C@@H](CC(N)=O)C(=O)N[C@H](C(=O)NCC(=O)N[C@@H](CO)C(=O)NCC(=O)N[C@H](C(=O)N1CCC[C@H]1C(N)=O)[C@@H](C)O)[C@@H](C)O)[C@@H](C)O)[C@@H](C)O [sCT] | short in-vivo half-life | poor stability |
